Columns and labels:
Assay in all cases: Competitive isoTOP-ABPP in situ (fragment-treated cells)
Assay type in all cases: cell-based
[1] = molecular target: T1, cysteines in MDA-MB-231 and Ramos cells (Homo sapiens, UniProt Q9NWA0)
T1 sequence (Q9NWA0 1-146): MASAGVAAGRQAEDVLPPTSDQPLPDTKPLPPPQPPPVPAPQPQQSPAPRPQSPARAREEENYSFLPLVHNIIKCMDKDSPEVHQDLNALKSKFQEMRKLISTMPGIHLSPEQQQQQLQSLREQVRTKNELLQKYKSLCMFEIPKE

[2] = molecular target: cysteines in MDA-MB-231 and Ramos cells (Homo sapiens, UniProt O60825); details: 200 μM, insitu
Sequence of cysteines in MDA-MB-231 and Ramos cells (Homo sapiens, UniProt O60825) (O60825 whole entry): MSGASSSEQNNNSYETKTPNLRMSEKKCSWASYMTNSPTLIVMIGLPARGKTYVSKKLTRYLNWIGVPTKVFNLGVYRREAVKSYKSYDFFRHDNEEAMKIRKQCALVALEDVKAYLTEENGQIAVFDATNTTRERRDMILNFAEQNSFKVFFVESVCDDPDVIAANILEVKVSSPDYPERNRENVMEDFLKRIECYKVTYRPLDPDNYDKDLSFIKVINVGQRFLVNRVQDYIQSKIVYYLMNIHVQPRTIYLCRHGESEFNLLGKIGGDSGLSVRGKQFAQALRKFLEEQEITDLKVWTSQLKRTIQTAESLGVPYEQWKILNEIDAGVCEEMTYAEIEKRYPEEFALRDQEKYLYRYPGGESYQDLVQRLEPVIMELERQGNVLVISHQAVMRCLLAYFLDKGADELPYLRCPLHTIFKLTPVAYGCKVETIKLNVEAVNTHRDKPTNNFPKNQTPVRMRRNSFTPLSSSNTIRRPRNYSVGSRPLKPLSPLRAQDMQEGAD

[3] = molecular target: cysteines in MDA-MB-231 and Ramos cells (Homo sapiens, UniProt Q96NY7)
Sequence of cysteines in MDA-MB-231 and Ramos cells (Homo sapiens, UniProt Q96NY7) (Q96NY7 whole entry): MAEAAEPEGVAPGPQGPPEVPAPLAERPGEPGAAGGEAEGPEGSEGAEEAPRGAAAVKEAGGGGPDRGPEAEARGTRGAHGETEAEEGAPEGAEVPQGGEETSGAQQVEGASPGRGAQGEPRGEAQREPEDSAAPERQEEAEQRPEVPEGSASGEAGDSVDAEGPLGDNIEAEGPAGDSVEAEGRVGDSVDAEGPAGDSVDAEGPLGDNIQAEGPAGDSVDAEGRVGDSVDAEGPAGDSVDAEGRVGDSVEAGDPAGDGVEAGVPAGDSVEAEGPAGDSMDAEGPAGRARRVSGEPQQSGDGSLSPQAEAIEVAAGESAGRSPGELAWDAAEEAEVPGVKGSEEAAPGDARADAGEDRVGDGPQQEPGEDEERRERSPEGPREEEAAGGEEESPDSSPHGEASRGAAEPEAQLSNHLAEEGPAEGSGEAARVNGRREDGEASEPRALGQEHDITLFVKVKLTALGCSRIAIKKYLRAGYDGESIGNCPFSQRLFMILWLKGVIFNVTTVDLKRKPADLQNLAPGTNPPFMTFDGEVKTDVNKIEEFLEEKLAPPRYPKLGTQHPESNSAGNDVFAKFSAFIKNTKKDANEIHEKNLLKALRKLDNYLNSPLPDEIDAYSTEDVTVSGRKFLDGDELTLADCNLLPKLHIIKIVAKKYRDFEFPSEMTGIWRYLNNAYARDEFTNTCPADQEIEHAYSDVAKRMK

[4] = molecular target: cysteines in MDA-MB-231 and Ramos cells (Homo sapiens, UniProt O14933); details: for isoTOP-ABPP ratio, cysteine O14933_C98: 200 μM, insitu
Sequence of cysteines in MDA-MB-231 and Ramos cells (Homo sapiens, UniProt O14933) (O14933 whole entry): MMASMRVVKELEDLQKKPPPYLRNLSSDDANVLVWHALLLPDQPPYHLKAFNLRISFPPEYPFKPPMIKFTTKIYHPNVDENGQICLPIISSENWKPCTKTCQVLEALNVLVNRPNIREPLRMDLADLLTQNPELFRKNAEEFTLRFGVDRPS

[5] = molecular target: T2, cysteines in MDA-MB-231 and Ramos cells (Homo sapiens, UniProt A0AVT1)
T2 sequence (A0AVT1 1-1052): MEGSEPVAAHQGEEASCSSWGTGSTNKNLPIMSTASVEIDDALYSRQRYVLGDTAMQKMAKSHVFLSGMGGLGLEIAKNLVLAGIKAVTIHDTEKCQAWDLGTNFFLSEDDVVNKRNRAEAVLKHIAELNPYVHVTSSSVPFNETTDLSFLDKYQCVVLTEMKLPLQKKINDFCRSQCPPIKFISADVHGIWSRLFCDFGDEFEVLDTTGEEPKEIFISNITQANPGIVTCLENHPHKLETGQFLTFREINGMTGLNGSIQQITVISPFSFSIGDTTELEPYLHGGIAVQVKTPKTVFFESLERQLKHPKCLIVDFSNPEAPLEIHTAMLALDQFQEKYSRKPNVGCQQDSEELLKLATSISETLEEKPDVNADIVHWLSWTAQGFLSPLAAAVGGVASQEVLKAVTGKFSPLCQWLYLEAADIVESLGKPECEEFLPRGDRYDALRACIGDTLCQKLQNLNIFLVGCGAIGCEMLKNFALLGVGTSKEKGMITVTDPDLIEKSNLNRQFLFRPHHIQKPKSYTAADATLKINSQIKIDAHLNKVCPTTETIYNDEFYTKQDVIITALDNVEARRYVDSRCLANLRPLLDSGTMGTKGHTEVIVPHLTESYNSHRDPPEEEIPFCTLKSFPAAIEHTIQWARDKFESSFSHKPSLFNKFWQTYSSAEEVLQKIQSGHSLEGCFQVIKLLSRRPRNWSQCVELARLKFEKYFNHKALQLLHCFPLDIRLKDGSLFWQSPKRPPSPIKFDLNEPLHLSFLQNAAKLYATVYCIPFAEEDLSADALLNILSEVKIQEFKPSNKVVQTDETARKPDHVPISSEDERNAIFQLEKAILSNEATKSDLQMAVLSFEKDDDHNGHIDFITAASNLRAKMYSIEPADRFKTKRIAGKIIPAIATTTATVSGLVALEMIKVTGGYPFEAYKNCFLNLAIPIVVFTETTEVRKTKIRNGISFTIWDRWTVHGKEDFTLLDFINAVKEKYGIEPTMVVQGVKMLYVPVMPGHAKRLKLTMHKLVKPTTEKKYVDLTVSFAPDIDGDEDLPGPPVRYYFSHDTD

[6] = molecular target: T3, cysteines in MDA-MB-231 and Ramos cells (Homo sapiens, UniProt Q86W42)
T3 sequence (Q86W42 1-341): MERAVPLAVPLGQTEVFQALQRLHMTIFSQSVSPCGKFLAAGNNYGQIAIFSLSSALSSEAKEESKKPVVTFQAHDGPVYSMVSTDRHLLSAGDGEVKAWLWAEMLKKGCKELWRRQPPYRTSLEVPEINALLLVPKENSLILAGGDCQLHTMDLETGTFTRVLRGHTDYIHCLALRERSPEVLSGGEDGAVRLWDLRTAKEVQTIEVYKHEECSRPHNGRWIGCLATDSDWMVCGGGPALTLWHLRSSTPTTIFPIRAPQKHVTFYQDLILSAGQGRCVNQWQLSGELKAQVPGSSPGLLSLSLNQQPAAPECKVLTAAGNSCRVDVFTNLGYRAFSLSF

[7] = molecular target: T4, cysteines in MDA-MB-231 and Ramos cells (Homo sapiens, UniProt Q07065)
T4 sequence (Q07065 1-602): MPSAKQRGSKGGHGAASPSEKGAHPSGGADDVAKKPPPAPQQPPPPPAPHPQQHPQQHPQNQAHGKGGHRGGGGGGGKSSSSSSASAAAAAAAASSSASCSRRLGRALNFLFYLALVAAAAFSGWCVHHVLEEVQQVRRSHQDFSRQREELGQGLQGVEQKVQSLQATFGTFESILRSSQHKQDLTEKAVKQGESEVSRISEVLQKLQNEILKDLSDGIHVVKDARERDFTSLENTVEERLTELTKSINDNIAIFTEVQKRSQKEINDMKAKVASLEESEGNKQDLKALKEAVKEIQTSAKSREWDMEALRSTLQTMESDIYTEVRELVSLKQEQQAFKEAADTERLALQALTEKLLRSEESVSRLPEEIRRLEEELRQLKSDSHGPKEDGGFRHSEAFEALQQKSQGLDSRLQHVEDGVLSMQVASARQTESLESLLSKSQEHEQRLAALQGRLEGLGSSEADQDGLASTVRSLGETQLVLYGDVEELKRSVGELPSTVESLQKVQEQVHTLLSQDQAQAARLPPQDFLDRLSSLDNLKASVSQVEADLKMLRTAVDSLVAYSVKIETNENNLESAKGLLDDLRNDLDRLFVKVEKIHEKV

[8] = molecular target: T5, cysteines in MDA-MB-231 and Ramos cells (Homo sapiens, UniProt Q9NY27)
T5 sequence (Q9NY27 1-417): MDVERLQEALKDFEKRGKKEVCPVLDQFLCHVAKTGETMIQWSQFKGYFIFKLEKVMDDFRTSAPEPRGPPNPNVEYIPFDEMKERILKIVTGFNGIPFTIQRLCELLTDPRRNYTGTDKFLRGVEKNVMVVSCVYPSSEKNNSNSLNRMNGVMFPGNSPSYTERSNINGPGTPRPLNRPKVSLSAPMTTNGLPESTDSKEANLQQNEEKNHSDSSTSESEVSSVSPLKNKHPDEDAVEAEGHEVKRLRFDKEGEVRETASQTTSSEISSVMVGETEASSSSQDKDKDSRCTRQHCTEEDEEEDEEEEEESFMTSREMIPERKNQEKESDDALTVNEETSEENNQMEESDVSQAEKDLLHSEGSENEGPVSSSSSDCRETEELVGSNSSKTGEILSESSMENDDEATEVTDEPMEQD

For COc1ccc2c(c1)CCCN2C(=O)CCl [compound 2], the “isoTOP-ABPP reactivity Q9NWA0_0139 MED9” value ([1]; 200 μM, insitu, 231) was 4.3 and the “isoTOP-ABPP reactivity O60825_C158 PFKFB2” value [2]; 231 was 0.7.

For COc1ccc(C2CC(c3cccs3)=NN2C(=O)CCl)cc1 (centres unmarked) [compound 4], the “isoTOP-ABPP reactivity Q96NY7_C487 CLIC6” value ([3]; 100 μM in situ 231) was 20.0, the “isoTOP-ABPP reactivity O14933_C98 UBE2L6” value ([4]; 100 μM in situ 231) was 3.0 and the “isoTOP-ABPP reactivity Q9NWA0_0139 MED9” value ([1]; 100 μM in situ 231) was 14. The “isoTOP-ABPP reactivity A0AVT1_C347 UBA6” value ([5]; 100 μM in situ 231) was 20.0.

In the case of COc1cc2c(cc1OC)CN(C(=O)CCl)CC2 [compound 8], the “isoTOP-ABPP reactivity Q96NY7_C487 CLIC6” value ([3]; 200 μM, insitu, 231) is reported as 5.1.

For O=C(CCl)N1CCC(Cc2ccccc2)CC1 [compound 9], the “isoTOP-ABPP reactivity Q96NY7_C487 CLIC6” value ([3]; 200 μM, insitu, 231) was 3.6, the “isoTOP-ABPP reactivity Q86W42_C35 THOC6” value ([6]; 200 μM, insitu, 231) was 20.0 and the “isoTOP-ABPP reactivity Q07065_C100 CKAP4” value ([7]; 200 μM, insitu, 231) was 15.4. The “isoTOP-ABPP reactivity A0AVT1_C347 UBA6” value ([5]; 200 μM, insitu, 231) was 3.3.

O=C(CCl)N1CCN(S(=O)(=O)c2ccccc2F)CC1 [compound 10] was tested, and the “isoTOP-ABPP ratio Q96NY7_C487” value ([3]; 200 μM, insitu, 231) was 3.2, the “isoTOP-ABPP ratio, cysteine O14933_C98” value [4]; 231 was 20.0 and the “isoTOP-ABPP ratio, cysteine O14933_C98” value ([4]; ramos) was 3.2. The “isoTOP-ABPP ratio Q9NY27_C22” value ([8]; 200 μM, insitu, ramos) was 2.1, the “isoTOP-ABPP ratio, cysteine Q9NWA0_C139” value ([1]; 200 μM, insitu, 231) was 2.9 and the “isoTOP-ABPP ratio, cysteine A0AVT1_C347” value ([5]; 200 μM, insitu, ramos) was 20.0. The “isoTOP-ABPP ratio O60825_C158” value [2]; 231 was 0.7 and the “isoTOP-ABPP ratio O60825_C158” value ([2]; ramos) was 1.2.

In the case of Cn1cc(S(=O)(=O)N2CCOCC2)cc1C(=O)NC(=O)CCl [compound 11], the “isoTOP-ABPP ratio Q96NY7_C487” value ([3]; 100 μM in situ 231) is reported as 3.1, the “isoTOP-ABPP ratio Q9NY27_C22” value ([8]; 100 μM in situ 231) is reported as 2.3 and the “isoTOP-ABPP ratio Q86W42_C35” value ([6]; 100 μM in situ 231) is reported as 1.3. The “isoTOP-ABPP ratio, cysteine Q07065_C100” value ([7]; 100 μM in situ 231) was 1.0 and the “isoTOP-ABPP ratio, cysteine A0AVT1_C347” value ([5]; 100 μM in situ 231) was 1.6.

In the case of O=C(CCl)NC(=O)NC12CC3CC(CC(C3)C1)C2 [compound 12], the “isoTOP-ABPP ratio Q96NY7_C487” value ([3]; 200 μM, insitu, 231) is reported as 20.0, the “isoTOP-ABPP ratio Q9NY27_C22” value ([8]; 200 μM, insitu, 231) is reported as 20.0 and the “isoTOP-ABPP ratio, cysteine Q07065_C100” value ([7]; 200 μM, insitu, 231) is reported as 20.0. The “isoTOP-ABPP ratio, cysteine Q9NWA0_C139” value ([1]; 200 μM, insitu, 231) was 20.0 and the “isoTOP-ABPP ratio O60825_C158” value [2]; 231 was 0.8.

For O=C(CCl)NCCc1c[nH]c2ccccc12 [compound 13], the “isoTOP-ABPP ratio Q96NY7_C487” value ([3]; 200 μM, insitu, 231) was 1.9, the “isoTOP-ABPP ratio Q9NY27_C22” value ([8]; 200 μM, insitu, ramos) was 1.5 and the “isoTOP-ABPP ratio, cysteine Q07065_C100” value ([7]; 200 μM, insitu, 231) was 1.6. For the same molecule, the “isoTOP-ABPP ratio, cysteine Q9NWA0_C139” value ([1]; 200 μM, insitu, 231) was 1.1, the “isoTOP-ABPP ratio, cysteine A0AVT1_C347” value ([5]; 200 μM, insitu, 231) was 1.3 and the “isoTOP-ABPP ratio O60825_C158” value ([2]; ramos) was 0.9.
